The supplement of paper PMC10307832

Key:
Experiment in all cases: relative viability (nuclei count vs DMSO), 5 days (fraction); higher = more cells survive
Quizartinib + Pemetrexed = compound: CC(C)(C)c1cc(NC(=O)Nc2ccc(-c3cn4c(n3)sc3cc(OCCN5CCOCC5)ccc34)cc2)no1 [Quizartinib] + Nc1nc2[nH]cc(CCc3ccc(C(=O)N[C@@H](CCC(=O)O)C(=O)O)cc3)c2c(=O)[nH]1 [Pemetrexed] (partner 0.2 µM)
How it was run: (§1)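 The day after seeding in 1536-well plates, lung cancer cell lines were treated by pin tool with a single drug, or with a fixed anchor-drug dose together with five library-drug doses (not always all listed) in √10 steps. After 5 days, a combined fix-and-stain solution (final 0.05% Triton X-100, 1% formaldehyde, 1 ug/ml Hoechst) was added. Nuclei counted on 4× images gave relative viability as treated counts over vehicle counts, reported as the median of duplicate plates.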

Quizartinib + Linsitinib = compound: CC(C)(C)c1cc(NC(=O)Nc2ccc(-c3cn4c(n3)sc3cc(OCCN5CCOCC5)ccc34)cc2)no1 [Quizartinib] + C[C@]1(O)C[C@@H](c2nc(-c3ccc4ccc(-c5ccccc5)nc4c3)c3c(N)nccn32)C1 [Linsitinib] (partner 1 µM)
How it was run: as §1

YM155 + Lapatinib = compound: COCC[n+]1c2c(n(Cc3cnccn3)c1C)C(=O)c1ccccc1C2=O [YM155] + CS(=O)(=O)CCNCc1ccc(-c2ccc3ncnc(Nc4ccc(OCc5cccc(F)c5)c(Cl)c4)c3c2)o1 [Lapatinib] (partner 2 µM)
How it was run: as §1

Quizartinib + Dasatinib = compound: CC(C)(C)c1cc(NC(=O)Nc2ccc(-c3cn4c(n3)sc3cc(OCCN5CCOCC5)ccc34)cc2)no1 [Quizartinib] + Cc1nc(Nc2ncc(C(=O)Nc3c(C)cccc3Cl)s2)cc(N2CCN(CCO)CC2)n1 [Dasatinib] (partner 0.075 µM)
How it was run: as §1

Cell Line | relative viability (Quizartinib + Pemetrexed; first compound 0.001 µM) | relative viability (Quizartinib + Pemetrexed; first compound 0.003162 µM) | relative viability (Quizartinib + Pemetrexed; first compound 0.01 µM) | relative viability (Quizartinib + Pemetrexed; first compound 0.1 µM) | relative viability (Quizartinib + Linsitinib; first compound 0.001 µM) | relative viability (Quizartinib + Linsitinib; first compound 0.003162 µM) | relative viability (Quizartinib + Linsitinib; first compound 0.01 µM) | relative viability (Quizartinib + Linsitinib; first compound 0.1 µM) | relative viability (YM155 + Lapatinib; first compound 0.002 µM) | relative viability (YM155 + Lapatinib; first compound 0.006325 µM) | relative viability (YM155 + Lapatinib; first compound 0.02 µM) | relative viability (YM155 + Lapatinib; first compound 0.06325 µM) | relative viability (Quizartinib + Dasatinib; first compound 0.001 µM) | relative viability (Quizartinib + Dasatinib; first compound 0.003162 µM) | relative viability (Quizartinib + Dasatinib; first compound 0.01 µM) | relative viability (Quizartinib + Dasatinib; first compound 0.03162 µM) | relative viability (Quizartinib + Dasatinib; first compound 0.1 µM) | relative viability (Quizartinib + Pemetrexed; first compound 0.03162 µM) | relative viability (Quizartinib + Linsitinib; first compound 0.03162 µM)
NCI-H358 | 0.164 | 0.148 | 0.223 | 0.155 | 0.592 | 0.688 | 0.768 | 0.698 | 0.326 | 0.447 | 0.344 | 0.199 | 0.136 | 0.188 | 0.164 | 0.167 | 0.144 | – | –
NCI-H460 | – | 0.058 | 0.0614 | 0.073 | 0.583 | 0.572 | 0.782 | 0.708 | 0.906 | 1.1 | 1.05 | 0.452 | 0.481 | 0.551 | 0.413 | 0.307 | 0.422 | – | –
NCI-H520 | – | 0.557 | 0.745 | 0.477 | 0.862 | 0.992 | 0.888 | 0.859 | 0.801 | 0.733 | 1.16 | 1.02 | 0.169 | 0.192 | 0.244 | 0.198 | 0.171 | 0.714 | 0.934
NCI-H596 | 0.511 | 0.475 | 0.498 | 0.459 | 1.06 | 0.985 | 1.06 | 1.03 | – | 1.11 | 1.09 | 1.06 | 0.658 | 0.546 | 0.578 | 0.592 | 0.495 | 0.476 | 1.12
NCI-H647 | 0.141 | 0.125 | 0.221 | 0.19 | 1.17 | 1.07 | 1.26 | 1.45 | 1.13 | 1.08 | 0.799 | 0.405 | 0.173 | 0.181 | 0.178 | 0.199 | 0.185 | 0.182 | 1.18
NCI-H650 | 0.902 | 0.945 | 0.9 | 1.09 | 0.807 | 0.787 | 0.798 | 1.15 | 0.84 | 0.929 | 0.785 | 0.707 | 0.484 | 0.524 | 0.391 | 0.415 | 0.506 | 0.912 | 0.694
NCI-H661 | 0.868 | 0.887 | 0.926 | 0.89 | 0.564 | 0.544 | 0.433 | 0.737 | 0.522 | 0.575 | 0.575 | 0.421 | 0.756 | 0.896 | 1.09 | 0.837 | 0.887 | 0.898 | 0.58
NCI-H838 | 0.244 | 0.231 | 0.268 | 0.236 | 0.919 | 0.912 | 0.991 | 0.576 | 0.92 | 1.01 | 1.03 | 0.353 | 0.272 | 0.329 | 0.276 | 0.296 | 0.257 | 0.257 | 0.963
NCI-H1355 | 0.972 | 1.03 | 0.92 | 0.935 | 0.804 | 0.817 | 0.827 | 0.842 | 0.934 | 1.04 | 0.996 | 1.02 | 0.719 | 0.762 | 0.684 | 0.747 | 0.66 | 1.09 | 0.799
